Measurements published in PubChem BioAssay AID1963597 (National Center for Advancing Translational Sciences (NCATS), 2024).

What follows are compounds tested on human liver microsomes, metabolic stability half-life (assay: NCATS Human Liver Microsomal (HLM) Stability Profiling). Details: higher = more stable; screened at 1 µM (by protocol).
Summary of the method: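 Half-life derived from parent loss over 0–60 min (0, 5, 10, 15, 30, 60 min) at 37 °C. Incubations: 0.5 mg/mL microsomes, 1 µM test article, NADPH regeneration, pH 7.4 phosphate; quenched in acetonitrile containing albendazole, analysed by MS.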

| Compound | half-life [min] |
| --- | --- |
| Cc1nc(C2CCCCC2)c(-c2ccc(S(N)(=O)=O)c(F)c2)o1 | 30.7 |
| Cc1ccc(Nc2nc(C)c(NC(=O)c3ccc(C)cc3)c(Nc3ccc(C)cc3)n2)cc1 | 20.5 |
| CCOC(=O)c1ccc(Nc2nc3nonc3nc2Nc2cccc(C)c2C)cc1 | 10.7 |
| CCCN(CCN1CCN(c2ccccc2OC)CC1)C1CCc2ncsc2C1 (stereo not drawn) | 2.54 |
| Cc1cccc(NC(c2ccccc2F)c2ccc3ccc(C)nc3c2O)n1 (stereo not drawn) | 14.1 |
| NC(N)=Nc1nc(CSCC/C(N)=N/S(N)(=O)=O)cs1 | > 120 |
| CC(C)(C)CC(=O)OCC(=O)[C@@]1(O)CC[C@H]2[C@@H]3CCC4=CC(=O)C=C[C@]4(C)[C@H]3[C@@H](O)C[C@@]21C | 2.13 |
| Nc1ncnc2c1ncn2[C@@H]1O[C@H](CO)[C@@H](O)[C@@H]1O | > 120 |
| CCN(Cc1ccc(Cl)nc1)/C(=C/[N+](=O)[O-])NC | > 120 |
| NC(=O)[C@H]1CCS[C@@H]2C[C@]3(CCCN3C(=O)Cc3ccc(NC(=O)COc4ccc(Cl)cc4Cl)cc3)C(=O)N12 | 7.68 |
| Cc1ccc(NC(=O)c2cccc(N(C)C)c2)cc1NC(=O)c1ccc(O)cc1 | 18.9 |
| Cc1c(NC(=O)c2ccc(N3CCC(C)CC3)c([N+](=O)[O-])c2)cccc1-c1nc2ccccc2o1 | 30.7 |
| S=C(NCc1ccc2c(c1)OCO2)N1CCN(c2ncnc3c2oc2ccccc23)CC1 | 18.6 |
| COc1cc(C(c2c(C)[nH][nH]c2=O)c2c(C)[nH][nH]c2=O)ccc1OC(=O)c1ccccc1F | 1.83 |
| CN1CCN(C(=O)Cc2cccn2-c2ccc(F)cc2)CC1 | > 120 |
| COc1cc(C(=O)OC(COCCC(C)C)CN2CCOCC2)cc(OC)c1OC (stereo not drawn) | 2.43 |
| O=C(Nc1cccnc1)N1CCC(Cc2cccc(Oc3ccc(C(F)(F)F)cn3)c2)CC1 | 33.9 |

| Compound | half-life [min] |
| --- | --- |
| CNCCCC12CCC(c3ccccc31)c1ccccc12 | > 120 |
| CN1CCC(=C2c3ccccc3CCc3cccnc32)CC1 | > 120 |
| O=C(O)c1ccc(CN2CCOC[C@H]2c2ncc(-c3ccc(F)cc3)[nH]2)cc1 | > 120 |
| CCC1CCCCN1CC(=O)N1CCCc2c1c(=O)oc1ccc(OCc3ccccc3)cc21 (stereo not drawn) | 0.54 |
| O=C(O)c1ccccc1NCCc1ccccc1 | 23.8 |
| COc1ccc(OCC(=O)Nc2cc(-c3nc4ccccc4s3)ccc2C)cc1 | 3.38 |
| COc1cc2c(C(=O)N(C)c3cccc(C(F)(F)F)c3)cn(CC(C)C)c(=O)c2cc1OC | 0.93 |
| Cc1nn(C)c2c1C(c1ccc(C(F)(F)F)cc1)C(C#N)=C(N)O2 (stereo not drawn) | 11 |
| N#Cc1cccc(C(=O)Nc2ccc3ncnc(N4CCCCC4)c3c2)c1 | 12.4 |
| CC(=O)NC[C@H]1CN(c2ccc(N3CCSCC3)c(F)c2)C(=O)O1 | > 120 |
| Cc1[nH]c(/C=C2\C(=O)Nc3cc(-c4ccccc4)ccc32)c(C)c1CCC(=O)O | > 120 |
| CC1=C(C(=O)Nc2cccc(CN)c2)C(c2ccccc2Cl)N=C(Nc2nc3ccccc3o2)N1 (stereo not drawn) | > 120 |
| CN1c2cc(C(=O)Nc3ccc(C#N)cc3)ccc2C(=O)N2CCCCC21 (stereo not drawn) | 44.3 |
| O=[N+]([O-])c1cn2c(n1)OC[C@@H](OCc1ccc(OC(F)(F)F)cc1)C2 | > 120 |
| O=C(O)c1cn(C2CC2)c2cc(Cl)c(F)cc2c1=O | > 120 |
| C[C@]12CCC(=O)C=C1CC[C@@H]1[C@@H]2CC[C@@]2(C)[C@H]1CC[C@]2(O)C(=O)CO | 62.1 |
